Reference: PMC3610872, “Full and Partial Agonists of Thromboxane Prostanoid Receptor Unveil Fine Tuning of Receptor Superactive Conformation and G Protein Activation” (PLoS ONE, 2013)
Where a chain is given by its changes, count along the chain named. Marks after values point to notes of the source that are not given here.

Experiments:
WT human TP receptor = molecular target: T1, WT human TP receptor (Homo sapiens, UniProt P21731); assay: [3H]SQ29,548 radioligand binding (mixed-type and heterologous competition), WT receptor; conditions: HEK293 cells, value ±%CV
T1 construct: expressed in transfected cells; host or cells: HEK293
T1 sequence (P21731 1-343): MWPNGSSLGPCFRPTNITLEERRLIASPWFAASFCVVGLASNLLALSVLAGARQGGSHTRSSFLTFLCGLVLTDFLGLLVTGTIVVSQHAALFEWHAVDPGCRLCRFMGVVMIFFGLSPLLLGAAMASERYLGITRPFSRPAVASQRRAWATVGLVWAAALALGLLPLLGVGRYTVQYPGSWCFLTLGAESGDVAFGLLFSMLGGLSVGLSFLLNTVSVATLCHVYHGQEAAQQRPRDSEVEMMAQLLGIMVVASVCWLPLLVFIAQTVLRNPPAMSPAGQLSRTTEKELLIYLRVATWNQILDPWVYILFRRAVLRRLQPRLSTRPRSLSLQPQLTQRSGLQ
Method: (§1) Receptor expression and functional activity were monitored 48 hours after transfection. […] Heterologous competition studies involved concentrations of the indicated unlabeled ligands extending from 0.1 nM to 30 µM. After 30 min incubation at 25 °C, the reaction was stopped by aspiration of the medium, cells were washed with ice-cold PBS containing 0.2% (w/v) BSA and lysed in 0.5 N NaOH. Radioactivity was measured by liquid scintillation counting. Binding data were analyzed as described in Data and Statistical Analysis. Quantification of the total labeled inositol phosphates (IP) accumulation was performed using a conventional gravity flow column chromatography, as described previously, [19]. Briefly, the day before the assay, cells were labeled with 0,5 µCi of [myo-2-^3H]inositol (17 Ci/mmol) for 18–20 hours in serum-free, inositol-free DMEM containing 20 mM HEPES buffer, pH 7.4, and 0.5% (w/v) Albumax I. The day of the assay, media was replaced with serum-free, inositol-free DMEM containing 25 mM LiCl and cells stimulated for 30 min with the indicated agonists. After removal of the medium, cells were lysed with 10 mM formic acid and lysates were applied onto an anion exchange AG 1X-8 column, formate form, 200–400 mesh. The total IP fraction was then eluted with 2 M ammonium formate/formic acid buffer at pH 5 and radioactivity determined by liquid scintillation counting. Rescue experiments were performed essentially as above, except for a 18 hours incubation step with 1 µΜof SQ29,584 followed by its removal by washing three times with ice-cold PBS containing 1 mM MgCl2 and 0.1 mM CaCl2 before starting the experiment.
(§2) All average results are presented as mean±S.E. When indicated, ANOVA followed by post-hoc test for multiple comparisons was performed. Data from radioligand binding were evaluated by a nonlinear, least-squares curve-fitting procedure using GraphPad Prism version 4, implemented with the n-ligand m-binding site model, as described in the LIGAND computer program. Concentration-response curves were evaluated using Prism 4, which use the four parameters logistic model as described in the ALLFIT program. Parameter errors are all expressed in percentage coefficient of variation (%CV) and calculated by simultaneous analysis of at least two different independent experiments performed in duplicate or triplicate. Parameter comparison has been performed on the base of the F test for extra sum of square principle. All curves shown are computer generated.
(§3) Thus, transfection conditions were adjusted to secure equivalent levels of receptor expression for WT and mutants as previously described, [17], [19]. […] All the experiments were conducted within this range of receptor expression, if not specified differently.

[1] = molecular target: T2, E129V mutant human TP receptor (Homo sapiens, UniProt P21731, E129V); assay: [3H]SQ29,548 radioligand binding (mixed-type and heterologous competition), E129V mutant; conditions: HEK293 cells, E129V, value ±%CV
T2 construct: expressed in transfected cells; host or cells: HEK293
T2 sequence (P21731 1-343 E129V): T1 sequence (P21731 1-343) with E129V
Method: as §1, §2, §3

[2] = molecular target: T3, E240V mutant human TP receptor (Homo sapiens, UniProt P21731, E240V); assay: [3H]SQ29,548 radioligand binding (mixed-type), E240V mutant; conditions: HEK293 cells, value ±%CV
T3 construct: expressed in transfected cells; host or cells: HEK293
T3 sequence (P21731 1-343 E240V): T1 sequence (P21731 1-343) with E240V
Method: as §1, with “Rescue experiments were performed essentially as above, except for a 18 hours incubation step with 1 µΜof SQ29,584 followed by its removal by washing three times with ice-cold PBS containing 1 mM MgCl2 and 0.1 mM CaCl2 before starting the experiment.” left out
as §2, with “Parameter comparison has been performed on the base of the F test for extra sum of square principle. All curves shown are computer generated.” left out

[3] = molecular target: T4, E129/240V double mutant human TP receptor (Homo sapiens, UniProt P21731, E129V/E240V); assay: [3H]SQ29,548 radioligand binding (mixed-type), E129/240V double mutant; conditions: HEK293 cells, no Gαq, before SQ29,548 rescue, value ±%CV
T4 construct: expressed in transfected cells; host or cells: HEK293
T4 sequence (P21731 1-343 E129V/E240V): T1 sequence (P21731 1-343) with E129V, E240V
Method: Receptor expression and functional activity were monitored 48 hours after transfection. […] Heterologous competition studies involved concentrations of the indicated unlabeled ligands extending from 0.1 nM to 30 µM. After 30 min incubation at 25 °C, the reaction was stopped by aspiration of the medium, cells were washed with ice-cold PBS containing 0.2% (w/v) BSA and lysed in 0.5 N NaOH. Radioactivity was measured by liquid scintillation counting. Binding data were analyzed as described in Data and Statistical Analysis. Quantification of the total labeled inositol phosphates (IP) accumulation was performed using a conventional gravity flow column chromatography, as described previously, [19]. […] The total IP fraction was then eluted with 2 M ammonium formate/formic acid buffer at pH 5 and radioactivity determined by liquid scintillation counting. […]
All average results are presented as mean±S.E. When indicated, ANOVA followed by post-hoc test for multiple comparisons was performed. Data from radioligand binding were evaluated by a nonlinear, least-squares curve-fitting procedure using GraphPad Prism version 4, implemented with the n-ligand m-binding site model, as described in the LIGAND computer program. Concentration-response curves were evaluated using Prism 4, which use the four parameters logistic model as described in the ALLFIT program. […]

Bmax (WT human TP receptor; Gαq 3x): 0.90±46 pmol/mg prot
Bmax (WT human TP receptor; Gαq 5x): 0.95±39 pmol/mg prot
Bmax (WT human TP receptor; no Gαq cotransfection): 0.44±32 pmol/mg prot
Bmax ([1]; Gαq 3x): 0.38±21 pmol/mg prot
Bmax ([1]; Gαq 5x): 0.39±30 pmol/mg prot
Bmax ([1]; no Gαq cotransfection): 0.53±16 pmol/mg prot
Bmax ([2]; Gαq 3x): 0.65±52 pmol/mg prot
Bmax ([2]; Gαq 5x): 0.49±34 pmol/mg prot
Bmax ([2]; no Gαq cotransfection): 0.97±31 pmol/mg prot
Bmax [3]: 0.04±68 ^b pmol/mg prot
SMILES: O=C(O)CCC/C=C\C[C@@H]1[C@H](CNNC(=O)Nc2ccccc2)[C@@H]2CC[C@H]1O2 [[^3H]SQ29,548, [5,6-^3H]SQ29,548]
